What was measured:
[1] = tested on: CEM, CEMVBL (P-gp-overexpressing), CEME1000 (MRP1-overexpressing) and U937 cells; assay: Preliminary transport experiments in cell lines; assay type: in vitro ADME; settings: data not shown; for concentration-dependent effect of unlabelled drug on accumulation of the labelled drugs: 0-100 μM unlabelled drug, CEM, CEMVBL, CEME1000 and U937 cells
[2] = tested on: PBMCs; assay: Cell fractionation: membrane-bound and intracellular radiolabelled drug in PBMCs; assay type: in vitro ADME, human; settings: 50 μM ABC
Procedure: In a separate experiment, cells were incubated with the tritiated compounds ([^3H]-3TC, -ddI and -TDF) in the absence or presence of 50 μM ABC as described. The assay was terminated by rapid centrifugation in a chilled microcentrifuge and the cell pellets were washed three times in ice-cold PBS as described, followed by three times of rapid freezing in liquid nitrogen and thawing at room temperature. The suspension was layered on top of 1 mL of ice-cold 42% percoll solution containing 0.25 M sucrose, 1.5 mM magnesium chloride, pH 7.1, and centrifuged (12,000 g, 30 min at 4 °C). After centrifugation, the radioactivity in the clear supernatant (assumed as intracellular drug) and in the pellet/debris, harvested from the bottom of the gradient (assumed as membrane-bound drug) were determined by scintillation counting.

[3] = tested on: PBMCs; assay: Cellular association ratio (CAR) of radiolabelled drugs in PBMCs, drug-drug interaction; assay type: in vitro ADME, human; settings: for effect of unlabelled drug on CAR of [^3H]-ddI: 1 μM [^3H]-ddI; for effect of unlabelled drug on CAR of [^3H]-ddI / effect of unlabelled drug on CAR of [^3H]-TDF: dI 100 μM; for cellular association ratio (CAR): 1 μM labelled drug, 30–45 min, no interacting drug, mean ± S.D.; for cellular association ratio (CAR) / effect of incubation at 4 °C on cell-associated concentration: PBMCs; for effect of incubation at 4 °C on cell-associated concentration: 4 °C vs 37 °C; for effect of unlabelled drug on CAR of [^3H]-TDF: 1 μM [^3H]-TDF
Procedure: 11 PBMC samples were isolated from blood buffy coats using Lymphoprep (Alexis-sheild, Oslo, Norway), following the manufacturer's instructions. An aliquot of the PBMC samples were cryopreserved in fetal calf serum containing 10% dimethyl sulphoxide for batch analysis of membrane proteins by flow cytometry.
We also used 50 μM dipyridamole, 100 μM of deoxycytidine (dC), deoxyinosine (dI) and deoxyguanosine (dG) as positive controls to inhibit the transport of the drugs. The concentrations used of these inhibitors were based on previous observations. […] In a limited number of PBMC samples, we investigated the effects of two drug combinations on the uptake of labelled compounds as described above. The incubations were terminated by centrifugation (15,000 g, 1 min at 0 °C). A-100 μL aliquot of the supernatant was counted for radioactivity and the cell pellets were washed three times in ice-cold phosphate buffered saline followed by rapid centrifugation before the pellets were solubilised in 100 μL of distilled water as described previously and counted for radioactivity.

[4] = tested on: MRP; design: method as in PMID 17328866, PMID 17202245, PMID 19075072; settings: cited from earlier work
[5] = tested on: BCRP; design: method as in PMID 17202245; settings: cited from earlier work
[6] = tested on: P-gp; settings: cited from earlier work
[7] = Octanol-saline partition coefficient; assay type: physicochemical; settings: octanol/phosphate buffered saline; radiolabelled drug 10-31 nM
Procedure: Briefly, an equal volume of octanol and phosphate buffered saline (PBS) were presaturated by vigorously vortexing them for 5 min. The suspension was allowed to settle for 10 min before the upper saturated octanol layer was carefully removed and stored in a separate tube. […] Then 540 μL aliquots of each compound were added to an equal volume of presaturated octanol and vortexed for 5 min. The samples were centrifuged (1000 g for 5 min). The concentrations of radiolabelled drug in a volume of the octanol (upper layer) and in a similar volume of saline (lower layer) were measured using scintillation counting. The octanol-saline partition coefficient was determined as a ratio of radiolabelled drug in the octanol phase to radiolabelled drug concentration in the saline phase.

[8] = tested on: P-gp; design: method as in PMID 11145192; settings: cited from earlier work
[9] = tested on: guinea-pig brain perfusion and choroid plexus models; settings: cited from earlier work
[10] = unlabelled drugs 50 μM, dipyridamole 50 μM

CC(C)OC(=O)OCOP(=O)(CO[C@H](C)Cn1cnc2c(N)ncnc21)OCOC(=O)OC(C)C.O=C(O)/C=C/C(=O)O [TDF, Tenofovir disoproxil fumarate]
concentration-dependent effect of unlabelled drug on accumulation of the labelled drugs [1]: no concentration-dependent effects
intracellular drug concentration, effect of ABC [2]: unaffected
membrane-bound drug concentration, effect of ABC [2]: unaffected
effect of unlabelled drug on CAR of [^3H]-3TC ([3]; 1 μM [^3H]-3TC, unlabelled drugs 50 μM, dipyridamole 50 μM, dC 100 μM): significantly (P < 0.05) reduced uptake
effect of unlabelled drug on CAR of [^3H]-ddI [3, 10]: no effect
cellular association ratio (CAR) [3]: 2.20 ± 0.29
effect of incubation at 4 °C on cell-associated concentration [3]: significantly (P < 0.001) reduced at 4 °C
inhibition of MRP activity [4]: inhibited
BCRP inhibitory effect [5]: devoid of any BCRP inhibitory effect
inhibition of P-gp activity [6]: inhibited

O=c1[nH]cnc2c1ncn2[C@H]1CC[C@@H](CO)O1 [ddI, didanosine]
intracellular drug concentration, effect of ABC [2]: significantly (P < 0.05) decreased
membrane-bound drug concentration, effect of ABC [2]: unaffected
effect of incubation at 4 °C on cell-associated concentration [3]: significantly (P < 0.001) reduced at 4 °C

OC[C@H]1O[C@@H](n2cnc3c(O)ncnc32)C[C@@H]1O [dI, deoxyinosine]
effect of unlabelled drug on CAR of [^3H]-TDF [3, 10]: unaffected

OC[C@@H](O)[C@@H](O)[C@H](O)[C@H](O)CO [[^14C]-Mannitol, mannitol]
Partition coefficient (mean ± SD) [7]: 0.0022 ± 0.0001

OCCN(CCO)c1nc(N2CCCCC2)c2nc(N(CCO)CCO)nc(N3CCCCC3)c2n1 [dipyridamole]
effect of unlabelled drug on CAR of [^3H]-TDF [3, 10]: unaffected

Nc1ccn([C@@H]2CS[C@H](CO)O2)c(=O)n1 [3TC, lamivudine]
concentration-dependent effect of unlabelled drug on accumulation of the labelled drugs [1]: no concentration-dependent effects
P-gp substrate ([1]; preliminary studies): not a P-gp substrate
intracellular drug concentration, effect of ABC [2]: unaffected
membrane-bound drug concentration, effect of ABC [2]: significantly (P < 0.05) decreased
Partition coefficient (mean ± SD) [7]: 0.117 ± 0.0049
P-gp substrate [8]: not a substrate
effect of incubation at 4 °C on cell-associated concentration [3]: significantly (P < 0.001) reduced at 4 °C
inhibition of MRP activity [4]: inhibited

Nc1nc(NC2CC2)c2ncn([C@H]3C=C[C@@H](CO)C3)c2n1 [ABC, abacavir]
effect on intracellular accumulation of [^3H]-ddI [9]: increased
concentration-dependent effect of unlabelled drug on accumulation of the labelled drugs [1]: no concentration-dependent effects
Partition coefficient (mean ± SD) [7]: 7.065 ± 0.44
effect of unlabelled drug on CAR of [^3H]-ddI [3, 10]: no effect
cellular association ratio (CAR) [3]: 7.62 ± 1.32
effect of incubation at 4 °C on cell-associated concentration [3]: did not affect
inhibition of MRP activity [4]: inhibited
BCRP inhibitory effect [5]: inhibits
inhibition of P-gp activity [6]: inhibited

From publication PMC3864238 (Pharmaceutics, 2011)
